# Target: T1, CDK2/CyclinA (Homo sapiens, UniProt P24941)
# T1 construct: purchased Upstate Biotechnology
# Experiment: Measurement of CDK2 kinase inhibitory activity (IC50), 33P-ATP / histone H1 filter assay
# Type: biochemical
# Experimental: Measurement of CDK2 Kinase Inhibitory Activity (IC50)
# Compounds of the invention were tested for kinase inhibitory activity using the following protocol.
# 1.7 μl of active CDK2/CyclinA (Upstate Biotechnology, 10 U/μl) is diluted in assay buffer (250 μl of 10× strength assay buffer (200 mM MOPS pH 7.2, 250 mM β-glycerophosphate, 50 mM EDTA, 150 mM MgCl2), 11.27 μl 10 mM ATP, 2.5 μl 1M DTT, 25 μl 100 mM sodium orthovanadate, 708.53 μl H2O), and 10 μl mixed with 10 μl of histone substrate mix (60 μl bovine histone H1 (Upstate Biotechnology, 5 mg/ml), 940 μl H2O, 35 μCi γ^33P-ATP) and added to 96 well plates along with 5 μl of various dilutions of the test compound in DMSO (up to 2.5%). The reaction is allowed to proceed for 5 hours before being stopped with an excess of ortho-phosphoric acid (30 μl at 2%).
# γ^33P-ATP which remains unincorporated into the histone H1 is separated from phosphorylated histone H1 on a Millipore MAPH filter plate. The wells of the MAPH plate are wetted with 0.5% orthophosphoric acid, and then the results of the reaction are filtered with a Millipore vacuum filtration unit through the wells. Following filtration, the residue is washed twice with 200 μl of 0.5% orthophosphoric acid. Once the filters have dried, 25 μl of Microscint 20 scintillant is added, and then counted on a Packard Topcount for 30 seconds.
row,inhibition at 50 µM,Structure (SMILES)
1,≥ 50%,CC(C)(C)OC(=O)N1CCC(NC(=O)c2n[nH]c3ccccc23)CC1 [Example 57]
2,≥ 50%,"CNS(=O)(=O)Cc1ccc(NC(=O)c2n[nH]c3ccc(-c4cc5ccccc5o4)cc23)cc1 [Example 24, 5-Benzofuran-2-yl-1H-indazole-3-carboxylic acid (4-methylsulphamoylmethyl-phenyl)-amide]"
3,≥ 50%,O=C(Nc1ccccc1)c1n[nH]c2ccc(Cl)cc12 [Example 49]
4,≥ 50%,"O=C(Nc1ccccc1)c1n[nH]c2ccc(I)cc12 [Example 11, N-phenyl-5-iodo-1H-indazole-3-carboxamide]"
5,≥ 50%,CC(=O)Nc1ccc(NC(=O)c2n[nH]c3ccc(I)cc23)cn1 [Example 59]
6,≥ 50%,CCOC(=O)N1CCC(NC(=O)c2n[nH]c3ccc([N+](=O)[O-])cc23)CC1 [Example 34]
7,≥ 50%,O=C(Nc1ccc(N2CCOCC2)cc1)c1n[nH]c2ccc(I)cc12 [Example 52]
8,≥ 50%,"O=C(Nc1ccc(N2CCCC2=O)cc1)c1n[nH]c2ccccc12 [Example 6, N-[4-(2-oxopyrrolidin-1-yl)phenyl]-1H-indazole-3-carboxamide]"
9,≥ 50%,O=C(NCc1ccccc1)c1n[nH]c2ccc(Cl)cc12 [Example 45]
10,≥ 50%,CNS(=O)(=O)Cc1ccc(NC(=O)c2n[nH]c3ccc(-c4ccccc4)cc23)cc1 [Example 32]
11,≥ 50%,O=C(Nc1ccc(N2CCOCC2)cc1)c1n[nH]c2ccc(Cl)cc12 [Example 74]
12,≥ 50%,O=C(Nc1cccc(-c2nnn[nH]2)c1)c1n[nH]c2ccc(Cl)cc12 [Example 75]
13,≥ 50%,"O=C(Nc1ccc([N+](=O)[O-])cn1)c1n[nH]c2ccc(I)cc12 [Example 16, N-(5-nitro-pyridin-2-yl)-5-Iodo-1H-indazole-3-carboxamide]"
14,≥ 50%,CN1CCN(c2ccc(CNC(=O)c3n[nH]c4ccc(Cl)cc34)cc2)CC1 [Example 46]
15,≥ 50%,"O=C(NC1CCNCC1)c1n[nH]c2ccc(I)cc12 [Example 64, 5-Iodo-1H-indazole-3-carboxylic acid piperidin-4-ylamide]"
16,≥ 50%,"CNS(=O)(=O)Cc1ccc(NC(=O)c2n[nH]c3ccc(-c4c(C)noc4C)cc23)cc1 [Example 22, 5-(3,5-Dimethyl-isoxazol-4-yl)-1H-indazole-3-carboxylic acid (4-methylsulphamoylmethyl-phenyl)-amide]"
17,≥ 50%,"CS(=O)(=O)N1CCC(NC(=O)c2n[nH]c3ccccc23)CC1 [Example 69, 1H-Indazole-3-carboxylic acid (1-methanesulphonyl-piperidin-4-yl)-amide]"
18,≥ 50%,"CC(=O)NCc1ccc(NC(=O)c2n[nH]c3ccc(Cl)cc23)cc1 [Example 65, 5-Chloro-1H-indazole-3-carboxylic acid [4-(acetylamino-methyl)-phenyl]-amide]"
19,≥ 50%,CS(=O)(=O)NCc1ccc(NC(=O)c2n[nH]c3ccc([N+](=O)[O-])cc23)cc1 [Example 33]
20,≥ 50%,"O=C(Nc1ccc(F)cc1)c1n[nH]c2cccc(Br)c12 [Example 71, 4-Bromo-1H-indazole-3-carboxylic acid (4-fluoro-phenyl)-amide]"
21,≥ 50%,CNS(=O)(=O)Cc1ccc(NC(=O)c2n[nH]c3ccc(I)cc23)cc1 [Example 13]

# Reference: patent publication US20060135589A1, “1h-Indazole-3-carboxamide compounds as cyclin dependent kinase (cdk) inhibitors” (Astex Technology, Inc., priority 2002, published 2006)
